Here are results for three molecules from patent US20050171084A1, “Methods of treatment with lxr modulators” (priority 2002, published 2005).

Assay [1] concerns rat pheochromocytoma cells. The settings on record: Schmidt, et al. (19); cited from earlier work.
A further assay deals with Hippocampal neurons. Description: Neurite outgrowth in hippocampal neurons. It is filed as cell-based, rat. The conditions noted are these: HC neurons, 48 hours, SEM in parentheses. How it is done: Hippocampal neurons: The hippocampi of gestational day 18 rat embryos were dissected out, incubated in trypsin (0.08%, 30 min at 37° C.) and dissociated mechanically (16). Hippocampal cells were resuspended in neurobasal medium supplemented with B27, anti-oxidants, 1 mM glutamine, 25 μM glutamate, 1 mM pyruvate. For outgrowth assays, cells were plated at a density of 3000 cells/well into 96 well dishes that had previously been coated with poly-D-lysine followed by 10% FCS and cultured for 48 hours.
The test compound was solubilised in DMSO and added to culture medium at time of cell plating at a dilution of 1:1000. Vehicle only (1:1000) was added to culture medium of untreated controls. Cells were fixed with 4% paraformaldehyde for 1 hour on ice, washed with PBS and stained using Coomassie. Assays were quantified using a KS300 image analysis system (Imaging Associates, UK). For each cell measured, the length from the edge of the cell to the end of the longest neurite was measured for 100 cells/well for each treatment in triplicate. All data are means and SEM pooled from three independent experiments. Results are expressed as a percentage of the length of neurites of cells treated with vehicle alone.

The next assay deals with T1, LXRβ protein (Homo sapiens, UniProt P55055).
T1 sequence (P55055 1-460): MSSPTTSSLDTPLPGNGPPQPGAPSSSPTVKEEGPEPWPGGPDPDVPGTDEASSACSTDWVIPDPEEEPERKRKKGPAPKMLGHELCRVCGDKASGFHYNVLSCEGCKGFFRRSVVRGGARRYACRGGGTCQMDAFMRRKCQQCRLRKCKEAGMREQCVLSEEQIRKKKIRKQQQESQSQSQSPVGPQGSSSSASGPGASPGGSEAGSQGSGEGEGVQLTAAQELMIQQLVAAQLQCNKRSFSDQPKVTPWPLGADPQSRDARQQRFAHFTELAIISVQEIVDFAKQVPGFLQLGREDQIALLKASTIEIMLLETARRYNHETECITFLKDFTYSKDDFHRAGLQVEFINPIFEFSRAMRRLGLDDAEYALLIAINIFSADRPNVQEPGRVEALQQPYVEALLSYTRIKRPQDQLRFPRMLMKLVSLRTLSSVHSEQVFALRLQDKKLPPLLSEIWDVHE
The conditions noted are these: 1 μM; over a background reading of 10000 fluorescence units; cited from earlier work.

Structures are written as SMILES.

In the case of `CCCCCCCCCCCCCCOc1ccc(C(=O)O)o1` [5-tetradecyloxy-2-furancarboxylic acid], in assay [1], the neuronal differentiation result was “induced neuronal differentiation”.
In the case of `CC(C)CC[C@@H](O)[C@@H](C)[C@H]1CC[C@H]2[C@@H]3CC=C4C[C@@H](O)CC[C@]4(C)[C@H]3CC[C@]12C` [22(R) hydroxychol., 22(R)-hydroxycholesterol, reference compound], the “length of longest neurite, percentage of cells treated with vehicle alone” value is 115.9 (6.02) % with Hippocampal neurons (0.3 μm test compound), 116 (7.45) % in the assay on Hippocampal neurons (1.0 μm test compound), 129.9 (4.12) % with Hippocampal neurons (3.0 μm test compound) and 127.9 (6.18) % in the assay with Hippocampal neurons (10.0 μm test compound). In assay [1], the neuronal differentiation result was “induced neuronal differentiation”.
Take `C[C@H](CC[C@@H]1OC1(C)C)[C@H]1CC[C@H]2[C@@H]3CC=C4C[C@@H](O)CC[C@]4(C)[C@H]3CC[C@]12C` [24(S), 25-epoxycholesterol]: the fluorescence reading on LXRβ protein was 20000 fluorescence units.
